Test results as given in patent US6482804B1, “Compositions and methods for delivery of genetic material” (Wyeth, priority 1997, dated 2002).

Test: Scanning and transmission electron microscopy (SEM/TEM) of surfactant:DNA complexes
Type: physicochemical
Details: aqueous formulations
Procedure: Scanning electron microscopy (SEM) and transmission electron microscopy (TEM) were employed to visualize the resulting complexes formed by the benzylammonium-containing surfactant and polynucleic acid compositions of this invention.
Each formulation containing 8.71% sucrose w/v and 5 mM phosphate buffer at pH6.7±0.5.
ii. […] However, upon addition of DNA, vesicular complexes are formed, when observed by SEM.
iii. […] Similar particle distribution was found at both concentrations of DNA, but in larger numbers with higher DNA concentrations. Larger particles in higher DNA concentrations appear to have derived from the fusion of several 50 nm particles. Formation of larger particles was dependent on the concentration of DNA in the formulation. These particles were visualized by shadow casting in SEM analysis using carbon, and were visible by short (10 second) exposure to the contrasting agent uranyl acetate in TEM analysis. The TEMs show membranous structures typical of liposomes described in literature.
As controls, SEM of DNA alone and benzalkonium chloride alone in aqueous solutions were performed. Vesicular structures are found only when aqueous solutions of DNA and benzalkonium chloride are mixed. TEMs show structures that are vesicular and some are multilamellar. Membranous structures found in these TEMs are consistent with the formation of lamellar vesicular complexes in liposomes.

## benzalkonium chloride
  structures seen by SEM/TEM: does not form vesicular complexes
